Data from article PMC9410914 (2022).

System: WT R-mRNA+30 (I-2S8) (RNA, riboswitch) GGGCAGUGAGCAACAAAAUGCUCACCUGGGUCGCAGUAACCCCAGUUAACAAAACAAGGGAGGUAAUUUUGUGCCCAAAAAAAGAAUAAAAGAUUUAGCU
Experiment: single-molecule TIRF (SiM-KARB), 30S binding/dissociation rates vs preQ1, global Hill fit
Details: K+ 100 mM, Mg2+ 5 mM, NH4+ 5 mM, Ca2+ 0.5 mM; apparent; Tris-polymix pH 7.5, spermidine, putrescine; 20 nM Cy5-30S ribosomal subunits present; indirect readout

- K1/2: ~ 48 nM
Compound: NCc1c[nH]c2nc(N)[nH]c(=O)c12
